Data reported in US9255295B2, “Method for evaluating the sensitizing potential of a test compound” (IMMUNOSEARCH, priority 2010, dated 2016).

Test system: genes specific for sensitization (BRAK, CTSS, DAPK2, FABP4, HSP27, IL18, HSP90, IL1R2, TPSAB1, CXCR1, DEFB1, DHFR, EHF, IVL, KRT4, MELANA, NGAL, PDZK1IP1, PI3 …)
Assay: Expression of the other (non-ARE) sensitization-specific genes in EPISKIN reconstructed skin (quantitative RT-PCR)
Format: cell-based, human
Conditions: for MELANA expression / PDZK1iP1 expression / SERPINB3 expression / BRAK expression / DHFR expression / HSP90 expression / IL18 expression / KRT4 expression: compared to the control

## CC=Cc1ccc(O)c(OC)c1 [Isoeugenol]
1%
  MELANA expression: 1.4
  PDZK1iP1 expression: 1.1
  SERPINB3 expression: 1.2
10%
  BRAK NUMBER OF GENES grade: 0 (if this expression is lower, the grade is 0)
  CTSS expression compared to control: 1.5
  CTSS grade (NUMBER OF GENES): 1 (If the expression is greater than 1.3 compared to the control, a grade of 11s given)
  CXCR1 expression compared to control: 1.6
  CXCR1 grade (NUMBER OF GENES): 1 (If the expression is greater than 1.3 compared to the control, a grade of 11s given)
  DAPK2 expression compared to control: 0.9
  DAPK2 grade (NUMBER OF GENES): 0 (if this expression is lower, the grade is 0)
  DEFB1 expression compared to control: 1.5
  DEFB1 grade (NUMBER OF GENES): 1 (If the expression is greater than 1.3 compared to the control, a grade of 11s given)
  DHFR NUMBER OF GENES grade: 0 (if this expression is lower, the grade is 0)
  EHF expression compared to control: 1.4
  EHF grade (NUMBER OF GENES): 1 (If the expression is greater than 1.3 compared to the control, a grade of 11s given)
  FABP4 expression compared to control: 1.2
  FABP4 grade (NUMBER OF GENES): 0 (if this expression is lower, the grade is 0)
  HSP27 expression compared to control: 0.9
  HSP27 grade (NUMBER OF GENES): 0 (if this expression is lower, the grade is 0)
  HSP90 NUMBER OF GENES grade: 1 (If the expression is greater than 1.3 compared to the control, a grade of 11s given)
  IL18 NUMBER OF GENES grade: 0 (if this expression is lower, the grade is 0)
  IVL expression compared to control: 1.9
  IVL grade (NUMBER OF GENES): 1 (If the expression is greater than 1.3 compared to the control, a grade of 11s given)
  KRT4 NUMBER OF GENES grade: 0 (if this expression is lower, the grade is 0)
  MELANA NUMBER OF GENES grade: 0 (if this expression is lower, the grade is 0)
  NGAL expression compared to control: 2.1
  NGAL grade (NUMBER OF GENES): 1 (If the expression is greater than 1.3 compared to the control, a grade of 11s given)
  P13 expression compared to control: 1.4
  P13 grade (NUMBER OF GENES): 1 (If the expression is greater than 1.3 compared to the control, a grade of 11s given)
  PDZK1iP1 NUMBER OF GENES grade: 0 (if this expression is lower, the grade is 0)
  SENS >1.3 (number of genes): 10
  SERPINB3 NUMBER OF GENES grade: 0 (if this expression is lower, the grade is 0)
  TOTAL SENS (number of genes): 10
  BRAK expression: 0.8
  DHFR expression: 0.9
  HSP90 expression: 1.3
  IL18 expression: 0.7
  KRT4 expression: 1.0
  MELANA expression: 0.6
  PDZK1iP1 expression: 1.0
  SERPINB3 expression: 1.1
50%
  BRAK NUMBER OF GENES grade: 0 (if this expression is lower, the grade is 0)
  CTSS expression compared to control: 1.4
  CTSS grade (NUMBER OF GENES): 1 (If the expression is greater than 1.3 compared to the control, a grade of 11s given)
  CXCR1 expression compared to control: 2.6
  CXCR1 grade (NUMBER OF GENES): 1 (If the expression is greater than 1.3 compared to the control, a grade of 11s given)
  DAPK2 expression compared to control: 1.4
  DAPK2 grade (NUMBER OF GENES): 1 (If the expression is greater than 1.3 compared to the control, a grade of 11s given)
  DEFB1 expression compared to control: 2.1
  DEFB1 grade (NUMBER OF GENES): 1 (If the expression is greater than 1.3 compared to the control, a grade of 11s given)
  DHFR NUMBER OF GENES grade: 0 (if this expression is lower, the grade is 0)
  EHF expression compared to control: 2.0
  EHF grade (NUMBER OF GENES): 1 (If the expression is greater than 1.3 compared to the control, a grade of 11s given)
  FABP4 expression compared to control: 1.8
  FABP4 grade (NUMBER OF GENES): 1 (If the expression is greater than 1.3 compared to the control, a grade of 11s given)
  HSP27 expression compared to control: 1.2
  HSP27 grade (NUMBER OF GENES): 0 (if this expression is lower, the grade is 0)
  HSP90 NUMBER OF GENES grade: 1 (If the expression is greater than 1.3 compared to the control, a grade of 11s given)
  IL18 NUMBER OF GENES grade: 0 (if this expression is lower, the grade is 0)
  IVL expression compared to control: 2.8
  IVL grade (NUMBER OF GENES): 1 (If the expression is greater than 1.3 compared to the control, a grade of 11s given)
  KRT4 NUMBER OF GENES grade: 0 (if this expression is lower, the grade is 0)
  MELANA NUMBER OF GENES grade: 0 (if this expression is lower, the grade is 0)
  NGAL expression compared to control: 2.7
  NGAL grade (NUMBER OF GENES): 1 (If the expression is greater than 1.3 compared to the control, a grade of 11s given)
  P13 expression compared to control: 1.7
  P13 grade (NUMBER OF GENES): 1 (If the expression is greater than 1.3 compared to the control, a grade of 11s given)
  PDZK1iP1 NUMBER OF GENES grade: 0 (if this expression is lower, the grade is 0)
  SENS >1.3 (number of genes): 13
  SERPINB3 NUMBER OF GENES grade: 1 (If the expression is greater than 1.3 compared to the control, a grade of 11s given)
  TOTAL SENS (number of genes): 13
  BRAK expression: 0.6
  DHFR expression: 0.9
  HSP90 expression: 1.7
  IL18 expression: 0.8
  KRT4 expression: 1.2
  MELANA expression: 0.4
  PDZK1iP1 expression: 1.1
  SERPINB3 expression: 1.5
